According to US7235674B2, “Substituted coumarins and quinolines and analogs as activators of caspases and inducers of apoptosis and the use thereof” (Cytovia, Inc., priority 2001, dated 2007):

Key:
[1] = tested on: Human breast cancer cell line ZR-75-1; assay: Caspase cascade activation assay (N-(Ac-DEVD)-N'-ethoxycarbonyl-R110 fluorogenic substrate) in ZR-75-1 cells; format: cell-based; conditions: for maximal fold induction: ZR-75-1, 24 h, read-out: Max efficacy ZR751; for Caspase activity (Ratio) ZR-75-1: ratio of net RFU of test compound to control, 3 h substrate reading
Method: (§1) Human breast cancer cell lines T-47D and ZR-75-1 were grown according to media component mixtures designated by American Type Culture Collection +10% FCS (Invitrogen Corporation), in a 5% CO2 −95% humidity incubator at 37° C. T-47D and ZR-75-1 cells were maintained at a cell density between 30 and 80% confluency at a cell density of 0.1 to 0.6×10^6 cells/mL. Cells were harvested at 600×g and resuspended at 0.65×10^6 cells/mL into appropriate media +10% FCS. An aliquot of 45 μl of cells was added to a well of a 96-well microtiter plate containing 5 μl of a 10% DMSO in RPMI-1640 media solution containing 0.16 to 10 μM of 3-cyano-7-methoxy-4-(3-bromo-4,5-dimethoxyphenyl)-2-oxo-2H-chromene (Example 1) or other test compound (0.016 to 1 μM final). An aliquot of 45 μl of cells was added to a well of a 96-well microtiter plate containing 5 μl of a 10% DMSO in RPMI-1640 media solution without test compound as the control sample. The samples were mixed by agitation and then incubated at 37° C. for 24 h in a 5% CO2 −95% humidity incubator. After incubation, the samples were removed from the incubator and 50 μl of a solution containing 20 μM of N-(Ac-DEVD)-N′-ethoxycarbonyl-R110 fluorogenic substrate (SEQ ID NO:1) (Cytovia, Inc.; WO99/18856), 20% sucrose (Sigma), 20 mM DTT (Sigma), 200 mM NaCl (Sigma), 40 mM Na PIPES buffer pH 7.2 (Sigma), and 500 μg/ml lysolecithin (Calbiochem) was added. The samples were mixed by agitation and incubated at room temperature. Using a fluorescent plate reader (Model 1420 Wallac Instruments), an initial reading (T=0) was made approximately 1-2 min after addition of the substrate solution, employing excitation at 485 nm and emission at 530 nm, to determine the background fluorescence of the control sample. After the 3 h incubation, the samples were read for fluorescence as above (T=3 h).
(§2) The Relative Fluorescence Unit values (RFU) were used to calculate the sample readings as follows: RFU(T=3 h)−Control RFU(T=0)=Net RFU(T=3 h)
(§3) The activity of caspase cascade activation was determined by the ratio of the net RFU value for 3-cyano-7-methoxy-4-(3-bromo-4,5-dimethoxy-phenyl)-2-oxo-2H-chromene, or other test compound, to that of control samples. The EC50 (nM) was determined by a sigmoidal dose-response calculation (Prism 2.0, GraphPad Software Inc.).

[2] = tested on: Human breast cancer cell line T-47D; assay: Caspase cascade activation assay (N-(Ac-DEVD)-N'-ethoxycarbonyl-R110 fluorogenic substrate) in T-47D cells; format: cell-based; conditions: for Caspase activity (Ratio) T-47D: ratio of net RFU of test compound to control, 3 h substrate reading
Method: as §1, §2, §3

[3] = Homo sapiens, commercial fused-pyridine compounds, ZR751 cells
[4] = Homo sapiens, ZR-75-1, commercial fused-pyridine compounds, ZR751 cells
[5] = commercial fused-pyridine compounds, T47D cells
[6] = caspase cascade activation potency, ZR-75-1 cells, 24 h incubation
[7] = caspase cascade activation potency, T-47D cells, 24 h incubation
[8] = Homo sapiens, caspase cascade activation potency, ZR-75-1 cells, 24 h incubation
[9] = Homo sapiens, T47D, caspase cascade activation potency, T-47D cells, 24 h incubation

Structure (SMILES)	EC50 [1, 8]	EC50 [2, 9]	Caspase activity (Ratio) ZR-75-1 ([1]; ZR-75-1 cells, 24 h incubation)	Caspase activity (Ratio) T-47D ([2]; T-47D cells, 24 h incubation)	also measured
N#Cc1c(N)nc2[nH]c(=S)[nH]c(=O)c2c1-c1ccc(Cl)cc1 [compound 51]					maximal fold induction [1, 3]: 2.8; EC50 [1, 4]: 5380 nM; EC50 (nM) T47D [2, 5]: Inactive; Max efficacy T47D [2, 5]: Inactive
N#Cc1c(N)nc2c(c1-c1cccs1)CCCC2 [compound 46]					maximal fold induction [1, 3]: 3.1; EC50 [1, 4]: 3410 nM; EC50 (nM) T47D [2, 5]: Inactive; Max efficacy T47D [2, 5]: Inactive
COc1ccccc1-c1c(C#N)c(N)nc2c1CCc1ccccc1-2 [compound 44]					maximal fold induction [1, 3]: 19.2; EC50 [1, 4]: 2040 nM; maximal fold induction ([2]; Homo sapiens, 24 h, commercial fused-pyridine compounds, T47D cells, read-out: Max efficacy T47D): 10.7; EC50 ([2]; Homo sapiens, commercial fused-pyridine compounds, T47D cells): 3120 nM
COc1cccc(-c2c(C#N)c(=O)[nH]c3cc(Cl)ccc23)c1 [Example 8, 7-Chloro-3-cyano-4-(3-methoxy-phenyl)-quinolin-1H-2-one]			10.1	4.1	EC50 [1, 6]: 878 nM; EC50 [2, 7]: 1170 nM
COc1ccc(-c2c(C#N)c(N)nc3c2CCc2ccccc2-3)cc1OC [compound 45]					maximal fold induction [1, 3]: 7; EC50 [1, 4]: 571 nM; EC50 (nM) T47D [2, 5]: Inactive; Max efficacy T47D [2, 5]: Inactive
COc1cccc(C2=c3ccc4c(c3OC(=O)C2C#N)C=CN=4)c1 (centres unmarked) [Example 5, 3-Cyano-4-(3-methoxyphenyl)-2-oxo-2H-pyrrolo[2,3-h]chromene]	111 nM	200 nM	10.4	2.0	
N#Cc1c(N)nc2sc(C(N)=O)c(N)c2c1-c1ccc(Br)cc1 [compound 47]					maximal fold induction [1, 3]: 2.7; EC50 [1, 4]: 6110 nM; EC50 (nM) T47D [2, 5]: Inactive; Max efficacy T47D [2, 5]: Inactive
COc1cccc(-c2c(C#N)c(=O)oc3cc(OC)ccc23)c1 [Example 17, 3-Cyano-4-(3-methoxy-phenyl)-7-methoxy-2-oxo-2H-chromene]	43.4 nM	99.7 nM	11.7	8.9	
COc1cc(-c2c(C#N)c(N)nc3c2CCc2ccccc2-3)cc(Br)c1OC [Example 19, 2-Amino-4-(3-bromo-4,5-dimethoxyphenyl)-3-cyano-5,6-dihydro-benzo[h]quinoline]	556 nM	4060 nM	7.9	5.4	
COc1ccc(-c2c(C#N)c(N)nc3c2CN(C)CC3)cc1OC [compound 50]					maximal fold induction [1, 3]: 2.4; EC50 [1, 4]: 576 nM; EC50 (nM) T47D [2, 5]: Inactive; Max efficacy T47D [2, 5]: Inactive
N#Cc1c(-c2ccccc2)c2ccccc2oc1=N [Example 3, 3-Cyano-2-imino-4-phenyl-2H-chromene]			Inactive	Inactive	EC50 (nM) ZR-75-1 [1, 6]: Inactive; EC50 (nM) T-47D [2, 7]: Inactive
COc1cc(-c2c(C#N)c(=O)oc3cc(N(C)C)ccc23)cc(Br)c1OC [Example 21, 3-Cyano-7-dimethylamino-4-(3-bromo-4,5-dimethoxyphenyl)-2-oxo-2H-chromene]	279 nM	546 nM	9.1	5.8	
COc1ccc2c(-c3cc(Br)c(OC)c(OC)c3)c(C#N)c(=O)[nH]c2c1 [Example 9, 4-(3-Bromo-4,5-dimethoxy-phenyl)-3-cyano-7-methoxy-quinolin-1H-2-one]			7.4	4.4	EC50 [1, 6]: 2050 nM; EC50 [2, 7]: 4410 nM
COc1cccc(-c2c(C#N)c(=N)sc3cc(OC)ccc23)c1 [Example 30, 2-Imino-3-cyano-7-methoxy-4-(3′-methoxy-phenyl)-2H-thiochromene]			Inactive	Inactive	EC50 (nM) ZR-75-1 [1, 6]: Inactive; EC50 (nM) T-47D [2, 7]: Inactive
N#Cc1c(-c2ccccc2)c2ccccc2[nH]c1=O [Example 6, 3-Cyano-4-phenyl-quinolin-1H-2-one]			10.6	9.1	EC50 [1, 6]: 882 nM; EC50 [2, 7]: 4800 nM
COc1ccc(-c2c(C#N)c(N)nc3c2CCCC3C)cc1 (centres unmarked) [compound 49]					maximal fold induction [1, 3]: 4.8; EC50 [1, 4]: 5710 nM; EC50 (nM) T47D [2, 5]: Inactive; Max efficacy T47D [2, 5]: Inactive
C=CCNc1nc2nc(N)c(C#N)c(-c3ccc(Br)cc3)c2s1 [compound 48]					maximal fold induction [1, 3]: 2.9; EC50 [1, 4]: 6040 nM; EC50 (nM) T47D [2, 5]: Inactive; Max efficacy T47D [2, 5]: Inactive
COc1cc(OC)cc(-c2c(C#N)c(=O)oc3cc(N)ccc23)c1 [Example 22, 7-Amino-3-cyano-4-(3,5-dimethoxyphenyl)-2-oxo-2H-chromene]	400 nM		3.4	1.5	EC50 (nM) T-47D [2, 7]: Inactive
N#Cc1c(-c2ccccc2)c2ccccc2oc1=O [Example 4, 3-Cyano-4-phenyl-2-oxo-2H-chromene]			Inactive	Inactive	EC50 (nM) ZR-75-1 [1, 6]: Inactive; EC50 (nM) T-47D [2, 7]: Inactive
COc1cc(-c2c(C#N)c(=O)oc3cc(N)ccc23)cc(Br)c1OC [Example 18, 7-Amino-4-(3-bromo-4,5-dimethoxyphenyl)-3-cyano-2-oxo-2H-chromene]	320 nM	1490 nM	7.1	2.2	
COc1cc(-c2c(C#N)c(=O)oc3cc(Cl)ccc23)cc(Br)c1OC [Example 28, 4-(3-Bromo-4,5-dimethoxy-phenyl)-7-chloro-3-cyano-2-oxo-2H-chromene]		2960 nM		2.2	

Continued, in another order:

EC50 [1, 8]	EC50 [2, 9]	Structure (SMILES)	Caspase activity (Ratio) ZR-75-1 ([1]; ZR-75-1 cells, 24 h incubation)	Caspase activity (Ratio) T-47D ([2]; T-47D cells, 24 h incubation)	also measured
1000 nM		COc1cc(-c2cc3c(c4c2=C(C#N)C(=O)O4)OC(C)(C)CC=3)cc(Br)c1OC [Example 20, 4-(3-Bromo-4,5-dimethoxyphenyl)-3-cyano-7,8-dihydro-8,8-dimethyl-2-oxo-2H-furo[3,2-h]chromene]	3.1	1.6	EC50 (nM) T-47D [2, 7]: Inactive
174 nM	106 nM	COc1cc(OC)cc(C2=c3ccc4c(c3OC(=O)C2C#N)C=CN=4)c1 (centres unmarked) [Example 16, 4-(3,5-Dimethoxyphenyl)-3-cyano-2-oxo-2H-pyrrolo[2,3-h]chromene]	3.6	3.1	
17 nM	56 nM	Cn1ccc2c3oc(=O)c(C#N)c(-c4cccc(Br)c4)c3ccc21 [Example 42, 3-Cyano-4-(3-bromo-phenyl)-7-methyl-2-oxo-2H-pyrrolo[2,3-h]chromene]	4.2	2.6	
429 nM	456 nM	COc1cc(OC)cc(-c2c(C#N)c(=O)oc3cc(N(C)C)ccc23)c1 [Example 23, 3-Cyano-7-dimethylamino-4-(3,5-dimethoxyphenyl)-2-oxo-2H-chromene]	7.2	2.3	
	2500 nM	COc1cc(-c2c(C#N)c(=N)oc3cc(N(C)C)ccc23)cc(Br)c1OC [Example 31, 2-Imino-3-cyano-7-dimethylamino-4-(3-bromo-4,5-dimethoxyphenyl)-2H-chromene]			
22 nM	55 nM	COc1cccc(-c2c(C#N)c(=O)oc3c2ccc2c3ccn2C)c1 [Example 41, 3-Cyano-4-(3-methoxy-phenyl)-7-methyl-2-oxo-2H-pyrrolo[2,3-h]chromene]	4.9	2.3	
22 nM	> 100 nM	Cn1ccc2c3oc(=O)c(C#N)c(-c4cccc([N+](=O)[O-])c4)c3ccc21 [Example 38, 3-Cyano-7-methyl-4-(3-nitro-phenyl)-2-oxo-2H-pyrrolo[2,3-h]chromene]	5.0	1.8	
